# Source: US20240309014A1, “MACROCYCLIC COMPOUNDS AND USES THEREOF” (President and Fellows of Harvard College, priority 2017, published 2024)
# How the values were obtained:
# Format in all cases: in vivo, nude mice
# [1] = tested on: FaDu subcutaneous xenograft; assay: Antitumor effects in FaDu subcutaneous xenograft model as monotherapy; conditions: intravenous at MTD: Halichondrin B 0.05 mg/kg, Compound (1) 0.2 mg/kg
# Experimental: (§1) A human squamous cell carcinoma of the head and neck (SCCHN) cell line FaDu, which had been cultured in an RPMI-1640 medium containing 10% FBS, and penicillin and streptomycin, was adjusted to a concentration of 4.8×10^7 cells/mL with Hanks' Balanced Salt Solution to prepare a cell suspension. The cell suspension was inoculated in a volume of 100 μL into a subcutaneous part of a right flank of nude mice, 7 weeks of ages (CAnN.Cg-Foxnlnu/CrlCrlj, female, Charles River Laboratories Japan Inc.). Nine days after cell inoculation, the shortest diameter and the longest diameter of a tumor in each mouse were measured by using an electronic digital caliper (Digimatic™ caliper, Mitutoyo Corporation), so as to calculate the volume of the tumor in accordance with the following calculation formulae: […]
# (§2) On the basis of the volumes of tumors obtained on the first day of administration, the mice were grouped such that averages of the tumor volumes were substantially equal among the groups. Each test compound was dissolved in DMSO and a solution was stored at the freezer before use. Immediately before the administration, the stock solution was diluted in saline with 100 μM of hydroxypropyl-β-cyclodextrin. Each evaluation sample was intravenously administered at a maximum tolerable dose (MTD). Incidentally, the experiment was conducted on groups each consisting of 4 mice.
# [2] = tested on: FaDu subcutaneous xenograft; assay: FaDu subcutaneous xenograft model in combination with cetuximab
# Excerpt: as §1, with “5×10^7” for “4.8×10^7”, “[…]” for “μL”, “Ten” for “Nine”
# as §2, with “Each evaluation sample was intravenously administered at a maximum tolerable dose (MTD).” left out
# [3] = tested on: α-SMA positive-CAFs in FaDu tumor; assay: Effect on α-SMA positive-CAFs in the FaDu subcutaneous model (Test Example 10); conditions: two days after administration
# Experimental: A human squamous cell carcinoma of the head and neck (SCCHN) cell line FaDu, which had been cultured in an RPMI-1640 medium containing 10% FBS, and penicillin and streptomycin, was adjusted to a concentration of 5×10^7 cells/mL with PBS to prepare a cell suspension. The cell suspension was inoculated in a volume of 100 μL into a subcutaneous part of a right flank of nude mice, 5 to 6 weeks of ages (CAnN.Cg-Foxnlnu/CrlCrlj, female, Charles River Laboratories Japan, Inc.). Ten days after cell inoculation, a test compound in saline with 100 μM of hydroxypropyl-β-cyclodextrin was intravenously administered at ½ MTD and MTD. The experiment was conducted on groups each consisting of 3 mice. Two days after administration, tumor samples were collected and fixed with IHC Zinc Fixative (BD Pharmingen) at 4° C. for 24 hr. Paraffin-embedded tissues were sectioned ([…]), mounted on positively charged slides, and air-dried for 6 hr. Immunohistochemical staining of α-SMA was conducted using Ventana autostainer model Discover XT (Roche Diagnostics). Sections were deparaffinized, conditioned and the antigens were retrieved with proprietary buffers, EZPrep and CC1 (Ventana Medical Systems). Mouse anti-α-SMA monoclonal antibody conjugated with alkaline phosphatase (clone 1A4, Sigma) was applied at 5 μg/mL. Sections were incubated with the antibody for 6 hr. The detection was performed with RedMap kit (Ventana Medical Systems, Inc). Sections were dehydrated in graded ethanols, defatted in xylene replacement and covered with DPX (Merck KGaA). The serial tumor slices were deparaffinized and stained with Mayer's hematoxylin (Muto Pure Chemicals) for 1 min. Sections were dehydrated in graded ethanols, defatted in xylene replacement and covered with DPX (Merck KGaA).
# Immunostained slides were scanned using Vectra 2 Automated Slide Imaging System (Perkin Elmer Inc.). The area of the α-SMA-positive region in the whole tumor was quantified by counting the α-SMA-positive objects using inForm 2 software (PerkinElmer Inc.). Area of the tumor region was measured by assessing the hematoxylin-staining area using inForm 2 software (PerkinElmer Inc.). The area of the α-SMA positive region was normalized by the area of the tumor region. A suppression rate of the α-SMA positive area of the test compound-dosing group was calculated with the below formula, and shown in Table 10.
# [4] = tested on: COLO-704 subcutaneous xenograft; assay: COLO-704 xenograft model as monotherapy (FIG. 12)
# Experimental: A human ovarian cancer cell line COLO-704, which had been cultured in a RPMI-1640 containing 10% FBS, and penicillin-streptomycin, was adjusted to a concentration of 1×10^8 cells/mL with Hanks' Balanced Salt Solution to prepare a cell suspension. The cell suspension was inoculated in a volume of 100 μL into a subcutaneous part of a right flank of nude mice, 5 weeks of ages (CAnN.Cg- Foxnlnu/CrlCrlj, female, Charles River Laboratories Japan Inc.). Nine days after cell inoculation (Day 1), the shortest diameter and the longest diameter of a tumor in each mouse were measured by using an electronic digital caliper (Digimatic™ caliper, Mitutoyo Corporation), so as to calculate the volume of the tumor in accordance with the following calculation formulae: […]
# On the basis of the volumes of tumors obtained on Day 1, the mice were grouped such that averages of the tumor volumes were substantially equal among the groups. The experiment was conducted on groups each consisting of six mice. The test compound was dissolved in DMSO and a solution was stored in the freezer before use. Immediately before the administration, the stock solution was diluted with saline. The test compound in saline was intravenously once-weekly administered at 20 μg/kg, 60 μg/kg, or 180 μg/kg for 2 weeks (on Day 1 and Day 8).
# [5] = ¼ MTD i.v. (Halichondrin B 0.0125 mg/kg, Compound (1) 0.05 mg/kg) + cetuximab 20 mg/kg
# [6] = ½ MTD i.v. (Halichondrin B 0.025 mg/kg, Compound (1) 0.1 mg/kg) + cetuximab 20 mg/kg
# [7] = MTD i.v. (Halichondrin B 0.05 mg/kg, Compound (1) 0.20 mg/kg)
# [8] = ½ MTD i.v. (Halichondrin B 0.025 mg/kg, Compound (1) 0.10 mg/kg)
Compound,Tumor Regression (%) [1],"Tumor Regression on day 35 (%) [2, 5]","Tumor Regression on day 35 (%) [2, 6]","Suppression rate of α-SMA positive area (%) [3, 7]","Suppression rate of α-SMA positive area (%) [3, 8]",antitumor effect ([4]; 60 μg/kg i.v. Day 1 and Day 8),antitumor effect ([4]; 180 μg/kg i.v. Day 1 and Day 8),xenograft tumors on Day 22 ([4]; 180 μg/kg i.v. Day 1 and Day 8)
C=C1C[C@@H]2CC[C@@]34C[C@H]5O[C@H]6[C@@H](O3)[C@H]3O[C@H](CC[C@@H]3O[C@H]6C5O4)CC(=O)O[C@@H]3[C@@H](C)[C@@H]4O[C@@H]5C[C@]6(C[C@@H]7O[C@]8(C[C@H](C)[C@@H]9O[C@H](CN)[C@H](O)C[C@@H]9O8)C[C@H](C)[C@@H]7O6)O[C@@H]5C[C@@H]4O[C@H]3C[C@H]3O[C@@H](CC[C@@H]1O2)C[C@@H](C)C3=C (stereo in doubt) [Compound (1)],43%,38%,60%,28%,21%,tumor growth delay,tumor regression,completely eradicated the xenograft tumors in all mice
"C=C1C[C@@H]2CC[C@@]34C[C@H]5O[C@H]6[C@@H](O3)[C@H]3O[C@H](CC[C@@H]3O[C@H]6[C@H]5O4)CC(=O)O[C@@H]3[C@@H](C)[C@@H]4O[C@@H]5C[C@]6(C[C@@H]7O[C@]8(C[C@H](C)[C@@H]9O[C@H]([C@@H](O)C[C@@H](O)CO)C[C@@H]9O8)C[C@H](C)[C@@H]7O6)O[C@@H]5C[C@@H]4O[C@H]3C[C@H]3O[C@@H](CC[C@@H]1O2)C[C@@H](C)C3=C [Halichondrin B, reference compound]",0%,−38%,−2%,3%,7%,,,
